Source: patent publication US7932266B2, “Isoquinoline derivatives as calpain inhibitors” (Consejo Superior de Investigaciones Cientificas, priority 2004, dated 2011)

Experiments:
[1] = target: T1, calpain I from porcine erythrocyte (Sus scrofa, UniProt P35750); assay: Enzyme activity test: inhibition of calpain (fluorimetric, BODIPY-FL casein substrate); assay type: biochemical; conditions: 7 inhibitor concentrations between 10 nM and 200 μM
T1 construct: calpain I from porcine erythrocyte (Calbiochem, Cat No 208712) was used as enzyme; purchased Calbiochem 208712; host or cells: porcine erythrocyte (natural source)
T1 sequence (P35750 1-714): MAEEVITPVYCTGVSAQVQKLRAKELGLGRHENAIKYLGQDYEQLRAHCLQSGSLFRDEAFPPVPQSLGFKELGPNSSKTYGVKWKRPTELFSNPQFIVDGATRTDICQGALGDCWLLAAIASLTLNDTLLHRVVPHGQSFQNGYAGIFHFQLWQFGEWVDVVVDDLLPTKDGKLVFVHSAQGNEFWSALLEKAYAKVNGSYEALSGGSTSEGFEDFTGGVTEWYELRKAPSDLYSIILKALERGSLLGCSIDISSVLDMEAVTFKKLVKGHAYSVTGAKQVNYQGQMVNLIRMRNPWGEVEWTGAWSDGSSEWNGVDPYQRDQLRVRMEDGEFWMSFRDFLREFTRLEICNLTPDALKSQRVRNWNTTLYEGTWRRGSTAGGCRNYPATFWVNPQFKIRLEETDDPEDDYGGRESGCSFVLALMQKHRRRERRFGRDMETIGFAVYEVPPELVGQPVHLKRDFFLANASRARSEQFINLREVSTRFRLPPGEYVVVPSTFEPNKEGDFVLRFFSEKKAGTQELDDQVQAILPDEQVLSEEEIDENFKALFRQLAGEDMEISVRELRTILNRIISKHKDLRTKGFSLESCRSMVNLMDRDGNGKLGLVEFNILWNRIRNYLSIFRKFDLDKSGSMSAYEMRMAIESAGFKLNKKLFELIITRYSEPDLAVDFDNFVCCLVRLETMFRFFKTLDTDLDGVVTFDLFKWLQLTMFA
T1 sequence (P04574 1-266 partner): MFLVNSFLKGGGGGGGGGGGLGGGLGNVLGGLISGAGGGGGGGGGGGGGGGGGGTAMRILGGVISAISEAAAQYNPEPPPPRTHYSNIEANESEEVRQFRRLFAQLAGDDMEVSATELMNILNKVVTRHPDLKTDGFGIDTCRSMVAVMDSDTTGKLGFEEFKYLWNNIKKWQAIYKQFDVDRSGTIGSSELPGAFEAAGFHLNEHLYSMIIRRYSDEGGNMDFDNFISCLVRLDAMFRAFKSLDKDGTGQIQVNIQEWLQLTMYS
From the text: The capacity to inhibit calpain has been quantified in terms of the value of IC50, which is defined as the concentration of inhibitor that reduces the catalytic activity of an enzyme by half. The lower the value of IC50, the more powerful the inhibitor. Inhibition results on calpain I (the most relevant from a physiological point of view) of some compounds of the present invention are shown in table 1 and in FIG. 1. Given that calpain II, also known as milli-calpain, needs a greater amount of Ca^2+ for activation, it might not possibly have such a relevant physiological role since such a concentration of Ca^2+ would cause cell death before the milli-calpain could become activated. For this reason, the inhibition tests have been performed for calpain I, though they can be extrapolated for calpain II.
The calpain inhibition capacity has been quantified in terms of the value of IC50, which is defined as the concentration of inhibitor that reduces the catalytic activity of an enzyme by half. The lower the value of IC50, the more powerful the inhibitor. Inhibition results on calpain I (the most relevant from a physiological point of view) of some compounds of the present invention are shown in table 1 and in FIG. 1.
The experiments were conducted spectrofluorimetrically using a Spectrofluor Tecan Corp 93382 spectrofluorimeter, exciting at […] and measuring at […]. Casein marked with BODIPY-FL® (Molecular Probes) was used as substrate and calpain I from porcine erythrocyte (Calbiochem, Cat No 208712) was used as enzyme. The freeze-dried substrate is component A of the protease assay kit EnzChek® green fluorescence from Molecular Probes (reference # E-6638); component B, known as 20× digestion buffer, contains 13 mL of 200 mM Tris-HCl, pH 7.8 and 2 mM sodium azide. The commercial calpain I that was used has a concentration of 1 mg in 1 mL of aqueous solution (the solution is 20 mM imidazol-HCl, pH 6.8, 1 mM EDTA, 1 mM EGTA, 5 mM β-mercaptoethanol, containing 30% glycerine).
2.5 mL of 20× digestion buffer (component B of the kit from Molecular Probes) was diluted with water to a total volume of 50 mL.
200 μg of freeze-dried substrate (component A of the kit from Molecular Probes) was dissolved in 200 μL of phosphate saline buffer. This solution was decanted into a graduated flask and diluted with the digestion solution to a total volume of 40 mL.
20 μL of commercial solution of calpain was diluted with the digestion solution to a total volume of 200 μL.
The inhibitor was dissolved in DMSO. Each inhibitor was assayed at 7 different concentrations between 10 nM and 200 μM.
All the data were obtained measuring the variation in fluorescence with time. The use of a multi-cell device and Eppendorf multi-channel pipettes permitted measurement of the variation in fluorescence in up to 64 experiments. In this way, the control experiment and the experiments with the different concentrations of inhibitor was carried out in the same set of measurements. All the experiments were conducted twice.
The control experiment was carried out mixing 180 μL of casein solution and 5 μL of calpain solution. The reaction was initiated by the addition of 10 μL of a 50 μM solution of CaCl2 in water, and the fluorescence was measured from the moment of the addition of Ca^2+ (time=0) and for 250-300 seconds (measuring during 20 kinetic cycles). The variation in fluorescence (ΔF) was represented against time (t). In order to test the effect of DMSO on enzyme activity, additional control experiments were conducted adding DMSO (in the quantities used in the experiments with the inhibitors), with the same result being obtained as in the control experiment.
180 μL of casein solution, 5 μL of calpain solution and 5 μL of inhibitor solution (of variable concentration) were mixed together. […]

SMILES | IC50 [1] [µM] | melting point [°C]
CC[C@H](C)[C@@H]1NC(=O)c2ccccc2/C1=C/C(=O)O [Compound 8, (S,S,Z)-(3-sec-butyl-1-oxo-2,3-dihydro-1H-isoquinolin-4-yliden)-acetic acid] |  | 215 to 216
CCCCOC(=O)/C=C1/c2ccccc2C(=O)N[C@H]1[C@@H](C)CC [Compound 10, 1-butyl (S,S,Z)-(3-sec-butyl-1-oxo-2,3-dihydro-1H-isoquinolin-4-yliden)-acetate] |  | 110 to 112
CC[C@H](C)[C@@H]1NC(=O)c2ccccc2/C1=C/C(=O)OCc1ccccc1 [Compound 11, benzyl (S,S,Z)-(3-sec-butyl-1-oxo-2,3-dihydro-1H-isoquinolin-4-yliden)-acetate] | 124 | 53 to 54
CCC(C)C1NC(=O)c2ccccc2/C1=C/C(=O)OC/C=C\COC(=O)/C=C1/c2ccccc2C(=O)N[C@H]1[C@@H](C)CC (some centres unmarked) [Compound 12] | 85 | 79 to 81
CC[C@H](C)[C@@H]1NC(=O)c2ccccc2/C1=C/C(=O)OCC#CCOC(=O)/C=C1/c2ccccc2C(=O)N[C@H]1[C@@H](C)CC [Compound 13] | 59 | 85 to 87
CC[C@H](C)[C@@H]1NC(=O)c2ccccc2/C1=C/C(=O)OCc1ccc(COC(=O)/C=C2/c3ccccc3C(=O)N[C@H]2[C@@H](C)CC)cc1 [Compound 14] | 5 | 213 to 215
CC[C@H](C)[C@@H]1NC(=O)c2ccccc2/C1=C/C(=O)NCc1ccccc1 [Compound 15, (S,S,Z)-N-benzyl-2-(3-sec-butyl-1-oxo-2,3-dihydro-1H-isoquinolin-4-yliden)-acetamide] | 140 | 90 to 94
CC[C@H](C)[C@@H]1NC(=O)c2ccccc2/C1=C/C(=O)Nc1cccc(C(C)=O)c1 [Compound 16, (S,S,Z)-N-(3-acetyl-phenyl)-2-(3-sec-butyl-1-oxo-2,3-dihydro-1H-isoquinolin-4-yliden)-acetamide] | 130 | 147 to 151
CC[C@H](C)[C@@H]1NC(=O)c2ccccc2/C1=C/C(=O)Nc1ccccc1-c1ccccc1NC(=O)[C@@H](NC(=O)OCC1c2ccccc2-c2ccccc21)C(C)C [Compound 19, (S,S,S,Z)-9H-fuorene-9-ylmethyl (1-{2′-[2-(3-sec-butyl-1-oxo-2,3-dihydro-1H-isoquinolin-4-yliden)-acetylamino]-biphenyl-2-ylcarbamoyl}-2-methyl-propyl)-carbamate] | 100 | 133 to 135
CC[C@H](C)[C@H](N)C(=O)Nc1ccccc1-c1ccccc1NC(=O)/C=C1/c2ccccc2C(=O)N[C@H]1[C@@H](C)CC [Compound 24, (S,S,S,S,Z)-2-amino-N-{2′-[2-(3-sec-butyl-1-oxo-2,3-dihydro-1H-isoquinolin-4-yliden)-acetylamino]-biphenyl-2-yl}-3-methyl-pentanamide] | 50 | 
CC[C@H](C)[C@@H]1NC(=S)c2ccccc2/C1=C/C(=O)O [Compound 29, (S,S,Z)-(3-sec-butyl-1-thioxo-2,3-dihydro-1H-isoquinolin-4-yliden)-acetic acid] |  | 193 to 196
CC[C@H](C)[C@H](NC(=O)/C=C1/c2ccccc2C(=S)N[C@H]1[C@@H](C)CC)C(=O)N[C@H](C(=O)OC)[C@@H](C)CC [Compound 30, methyl (S,S,S,S,S,S,Z)-2-{2-[2-(3-sec-butyl-1-thioxo-2,3-dihydro-1H-isoquinolin-4-yliden)-acetylamino]-3-methyl-pentanoylamino}-3-methyl-pentanoate] |  | 178 to 181

Further lines, results first:

IC50 [1] [µM] | melting point [°C] | SMILES
0.025 |  | CC[C@H](C)[C@@H]1NC(=O)c2ccccc2/C1=C/C(=O)OC [Compound 7, methyl (S,S,Z)-(3-sec-butyl-1-oxo-2,3-dihydro-1H-isoquinolin-4-yliden)-acetate]
0.086 |  | CC[C@H](C)[C@@H]1NC(=O)c2ccccc2/C1=C/C(=O)Nc1ccccc1-c1ccccc1N [Compound 17, (S,S,Z)-N-(2′-amino-biphenyl-2-yl)-2-(3-sec-butyl-1-oxo-2,3-dihydro-1H-isoquinolin-4-yliden)-acetamide]
0.742 | 177 to 180 | CC[C@H](C)[C@@H]1NC(=O)c2ccccc2/C1=C/C(=O)Nc1ccccc1-c1ccccc1NC(=O)/C=C1/c2ccccc2C(=O)N[C@H]1[C@@H](C)CC [Compound 18, (S,S,S,S,Z,Z)-2,2′-bis-[(3-sec-butyl-1-oxo-2,3-dihydro-1H-isoquinolin-4-yliden)-acetylamino]biphenyl]
48 | 108 to 110 | CC[C@H](C)[C@@H]1NC(=O)c2ccccc2/C1=C/C(=O)Nc1ccccc1-c1ccccc1NC(=O)[C@H](Cc1ccccc1)NC(=O)OCC1c2ccccc2-c2ccccc21 [Compound 20, (S,S,S,Z)-9H-fuorene-9-ylmethyl (1-{2′-[2-(3-sec-butyl-1-oxo-2,3-dihydro-1H-isoquinolin-4-yliden)-acetylamino]-biphenyl-2-ylcarbamoyl}-2-phenyl-ethyl)-carbamate]
5 | 116 to 120 | CC[C@H](C)[C@H](NC(=O)OCC1c2ccccc2-c2ccccc21)C(=O)Nc1ccccc1-c1ccccc1NC(=O)/C=C1/c2ccccc2C(=O)N[C@H]1[C@@H](C)CC [Compound 21, (S,S,S,S,Z)-9H-fuorene-9-ylmethyl (1-{2′-[2-(3-sec-butyl-1-oxo-2,3-dihydro-1 H-isoquinolin-4-yliden)-acetylamino]-biphenyl-2-ylcarbamoyl}-2-methyl-butyl)-carbamate]
7 |  | CC[C@H](C)[C@@H]1NC(=O)c2ccccc2/C1=C/C(=O)Nc1ccccc1-c1ccccc1NC(=O)[C@@H](N)Cc1ccccc1 [Compound 23, (S,S,S,Z)-2-amino-N-{2′-[2-(3-sec-butyl-1-oxo-2,3-dihydro-1H-isoquinolin-4-yliden)-acetylamino]-biphenyl-2-yl}-3-phenyl-propionamide]
0.447 |  | CC[C@H](C)[C@H](NC(=O)/C=C1/c2ccccc2C(=O)N[C@H]1[C@@H](C)CC)C(=O)N[C@H](C(=O)OC)[C@@H](C)CC [Compound 25, methyl (S,S,S,S,S,Z)-2-{2-[2-(3-sec-butyl-1-oxo-2,3-dihydro-1H-isoquinolin-4-yliden)-acetylamino]-3-methyl-pentanoylamino}-3-methyl-pentanoate]
